Assay results from PMC8954508, “α-Glucosidase and Bacterial β-Glucuronidase Inhibitors from the Stems of Schisandra sphaerandra Staph” (Pharmaceuticals, 2022).
Read-outs that look alike come from different tables or passages of the source.

What was measured:
Format in all cases: biochemical
[1] = molecular target: T1, α-Glucosidase (AGS) (Saccharomyces cerevisiae, UniProt P53341); assay: AGS (α-glucosidase) inhibitory assay
Description: (§1) The AGS [23, 24, 25, 26] and BGUS [27] inhibitory activities were evaluated by the methods reported in the literature, respectively.

[2] = molecular target: T1, α-Glucosidase (AGS); assay: Inhibition kinetics against AGS (Lineweaver–Burk plots); conditions: for Ki: AGS, secondary plot of slope versus [I], read-out: Ki (inhibition constant of the enzyme); for mode of inhibition against AGS: Lineweaver–Burk plots
Description: (§2) The mode of inhibition for the active compounds was determined by the Lineweaver–Burk plot fitted by GraphPad Prism 8.0 software. The Km value and the Vmax value were obtained from the slope and Y-axis intercept of the Lineweaver–Burk plot based on the following equation:(1) Vmax=1/Y−intercept (2) Km=slope× Vmax
(§3) The Ki and Ki’ values were available by secondary plotting of the slope and Y-intercept on the Lineweaver–Burk plot versus the inhibitor [I] through the following equations:(3) Slope=Km/Vmax+Km[I]/VmaxKi (4) Y−intercept=1/Vmax+[I]/VmaxKi′

[3] = molecular target: T2, bacterial β-glucuronidase (BGUS) (Escherichia coli, UniProt P05804); assay: BGUS (β-glucuronidase) inhibitory assay; conditions: in vitro; for IC50: means ± SD
Description: as §1

[4] = molecular target: T2, bacterial β-glucuronidase (BGUS); assay: Inhibition kinetics against BGUS (Lineweaver–Burk plots)
Description: as §2, §3

[5] = in vitro, means ± SD, read-out: IC50 α-Glucosidase

T1 sequence (P53341 whole entry): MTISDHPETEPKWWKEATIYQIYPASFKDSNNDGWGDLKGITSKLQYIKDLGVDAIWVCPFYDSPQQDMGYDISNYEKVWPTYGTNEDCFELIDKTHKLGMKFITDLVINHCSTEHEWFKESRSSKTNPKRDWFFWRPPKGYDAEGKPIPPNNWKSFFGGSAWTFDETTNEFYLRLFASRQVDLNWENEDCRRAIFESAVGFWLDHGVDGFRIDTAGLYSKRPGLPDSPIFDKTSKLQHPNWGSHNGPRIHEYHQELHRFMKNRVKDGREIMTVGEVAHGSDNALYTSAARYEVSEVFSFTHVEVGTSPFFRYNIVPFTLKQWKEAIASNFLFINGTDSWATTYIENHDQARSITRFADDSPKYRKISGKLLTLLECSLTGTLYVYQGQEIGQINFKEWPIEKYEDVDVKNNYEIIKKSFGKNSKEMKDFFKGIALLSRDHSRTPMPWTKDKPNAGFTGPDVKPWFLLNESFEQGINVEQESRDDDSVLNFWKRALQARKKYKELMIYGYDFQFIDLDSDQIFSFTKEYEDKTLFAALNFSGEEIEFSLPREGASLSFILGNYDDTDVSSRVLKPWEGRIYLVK
T2 sequence (P05804 whole entry): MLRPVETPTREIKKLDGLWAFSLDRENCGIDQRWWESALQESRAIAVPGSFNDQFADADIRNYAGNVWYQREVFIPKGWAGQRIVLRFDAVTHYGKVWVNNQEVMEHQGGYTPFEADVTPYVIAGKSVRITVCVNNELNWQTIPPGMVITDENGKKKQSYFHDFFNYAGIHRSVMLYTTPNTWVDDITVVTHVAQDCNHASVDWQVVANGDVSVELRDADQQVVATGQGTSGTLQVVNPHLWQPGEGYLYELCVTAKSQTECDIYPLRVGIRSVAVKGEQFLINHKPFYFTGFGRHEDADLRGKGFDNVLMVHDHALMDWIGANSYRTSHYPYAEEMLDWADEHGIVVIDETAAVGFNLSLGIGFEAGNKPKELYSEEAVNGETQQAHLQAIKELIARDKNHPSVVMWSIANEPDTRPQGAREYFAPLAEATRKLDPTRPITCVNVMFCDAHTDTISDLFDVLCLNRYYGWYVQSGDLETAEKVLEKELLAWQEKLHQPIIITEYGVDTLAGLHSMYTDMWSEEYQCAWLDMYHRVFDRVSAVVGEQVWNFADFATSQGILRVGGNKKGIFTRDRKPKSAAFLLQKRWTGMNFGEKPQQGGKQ

In the case of `CC(=O)OC1CC2=C(CCC3C(=C2)C=CC(=O)OC3(C)C)C2(C)CCC(C(C)C3CC=C(C)C(=O)O3)C12C` (stereo not shown) [Compound 1, Sphaerandralide A], the IC50 [1] is reported as 61.5 ± 1.75 µM, the Ki [2] is reported as 35.8 µM and the “mode of inhibition against AGS” value [2] is reported as “mixed-type inhibitors”.
With `CC1=CCC(C(C)C2CCC3(C)C4CCC5C(C)(C)OC(=O)C=CC56CC46CCC23C)OC1=O` (stereo not shown) [Compound 3, schisanlactone B] the IC50 [1, 5] was 29.5 ± 0.7 µM, the IC50 [3] was 14.7 ± 0.1 µM and the Ki [2] was 10.5 µM. For the same compound, the “mode of inhibition against AGS” value [2] was “mixed-type inhibitors” and the “mode of inhibition against BGUS” value [4] was “mixed-type inhibitor”.
In the case of `C=C(C)[C@@H]1CC[C@@H]2[C@]3(CC[C@]4(C)[C@@H]([C@H](C)CC/C=C(/C)C(=O)O)CC[C@@]24C)C[C@]13CCC(=O)OC` [Compound 4, 3,4-seco-(24Z)-cycloart-4(28),24-diene-3,26-dioic-3-methyl ester], the IC50 [1, 5] is reported as 14.1 ± 0.29 µM, the “BGUS inhibitory activity (in words)” value [3] is reported as “weak activity” and the IC50 [3] is reported as 155 ± 4.68 µM. For the same compound, the Ki [2] was 7.97 µM and the “mode of inhibition against AGS” value [2] was “competitive inhibitors”.
In the case of `C=C(C)[C@@H]1CC[C@@H]2[C@]3(CC[C@]4(C)C(=O)CC[C@@]24C)C[C@]13CCC(=O)OC` [Compound 5, schiglausin L], the IC50 [1, 5] is reported as 42.9 ± 1.04 µM and the “mode of inhibition against AGS” value [2] is reported as “could not be well defined”.
`O=C(O)[C@@H](O)[C@H]1OC(=O)[C@H](O)[C@H]1O` [DSL, D-Saccharic 1,4-lactone, reference compound] was tested, and the IC50 [3] was 56.9 ± 1.57 µM.
